Source: patent US20250197408A1, “CRYSTALLINE FORMS AND SALTS OF A PI3K INHIBITOR AND METHODS OF MAKING AND METHODS OF USE THEREOF” (Totus Medicines Inc., priority 2022, published 2025)

Assays:
[1] = Dynamic vapor sorption (DVS) analysis at 25° C.; type: physicochemical
Description: In one embodiment, the crystalline forms are characterized by Dynamic Vapor Sorption (DVS). The DVS profile is typically expressed by a diagram plotting the sample relative humidity (RH) versus the change in mass (%). The DVS profile provides information on hygroscopicity of the crystalline form at different RH conditions.
A DVS (dynamic vapor sorption) analysis at 25° C. was carried out on Form A** of Compound I benzenesulfonate salt as shown in FIG. 3D.

[2] = Solubility in 7 aqueous pH buffers and bio-relevant fluids at 37° C. (HPLC of supernatant; residual solids by XRPD); type: physicochemical
Description: 20 mg of the free base Form A of Compound I was weighed into a 20 mL glass vial. Amounts of the salts equivalent to 20 mg anhydrous free base were weighed into a glass vial. 10 mL of solubility medium was added. The resulting suspensions/solutions were stirred at 37° C. at 400 rpm and sampled at 2 hours and at 24 hours, respectively. The samples were centrifuged at 37° C. at 14,000 rpm for 5 min. Supernatants were analyzed by HPLC and pH meter for solubility and pH value, respectively. Residual solids (wet cakes) from the 24 hours samples were also characterized by XRPD to determine physical form.
Residual solids after the solubility test were analyzed by XRPD.

[3] = ES1, pH 1.2 HCl solution (0.1N), 37° C.
[4] = ES2, pH 4.5 acetate buffer (50 mM), 37° C.
[5] = ES3, pH 6.8 phosphate buffer (50 mM), 37° C.
[6] = ES4, pH 7.4 phosphate buffer (50 mM), 37° C.

Row | Compound | hygroscopicity / water sorption behavior (DVS) [1] | solid form of the sample after the DVS test [1] | Solubility for 2 h [2, 3] | pH of supernatant, solubility for 2 h (pH) [2, 3] | Solubility for 24 h [2, 3] | pH of supernatant, solubility for 24 h (pH) [2, 3] | Solubility for 2 h [2, 4] | pH of supernatant, solubility for 2 h (pH) [2, 4] | Solubility for 24 h [2, 4] | pH of supernatant, solubility for 24 h (pH) [2, 4] | Solubility for 2 h [2, 5] | pH of supernatant, solubility for 2 h (pH) [2, 5] | Solubility for 24 h [2, 5] | pH of supernatant, solubility for 24 h (pH) [2, 5] | Solubility for 2 h [2, 6] | pH of supernatant, solubility for 2 h (pH) [2, 6] | Solubility for 24 h [2, 6] | pH of supernatant, solubility for 24 h (pH) [2, 6] | Solubility for 2 h ([2]; ES5, SGF, pH 2.0, 37° C.) | pH of supernatant, solubility for 2 h (pH) ([2]; ES5, SGF, pH 2.0, 37° C.) | further results
1 | C=CC(=O)NCC(=O)N1CCN(Cc2cc3c(N4CCOCC4)nc(-c4cnc(NC(=O)OC)cc4C(F)(F)F)nn3c2)CC1.O=S(=O)(O)c1ccccc1 [Methyl (5-(6-((4-(acryloylglycyl)piperazin-1-yl)methyl)-4-morpholinopyrrolo[2,1-f][1,2,4]triazin-2-yl)-4-(trifluoromethyl)pyridin-2-yl) carbamate benzenesulfonate salt] | slightly hygroscopic | still the Form A** of Compound I benzenesulfonate salt | 300 µg/mL | (1.2) | 400 µg/mL | (1.0) | 200 µg/mL | (4.5) | 300 µg/mL | (4.4) | 8.5 µg/mL | (6.7) | 6.9 µg/mL | (6.6) | 5.7 µg/mL | (7.3) | 4.1 µg/mL | (7.3) | 200 µg/mL | (2.0) | water uptake (DVS) ([1]; from 40% to 95% RH): about 1.4%; solubility compared among forms ([2]; 37° C., 2 h and 24 h, 7 aqueous pH buffers and bio-relevant fluids): overall lower solubility than that of Form A of Compound I; Solubility for 24 h ([2]; ES5, SGF, pH 2.0, 37° C.): 300 µg/mL; pH of supernatant, solubility for 24 h (pH) ([2]; ES5, SGF, pH 2.0, 37° C.): (1.8); Solubility for 2 h ([2]; ES6, FaSSIF-v1, pH 6.5, 37° C.): 19.6 µg/mL; pH of supernatant, solubility for 2 h (pH) ([2]; ES6, FaSSIF-v1, pH 6.5, 37° C.): (6.3); Solubility for 24 h ([2]; ES6, FaSSIF-v1, pH 6.5, 37° C.): 18.6 µg/mL; pH of supernatant, solubility for 24 h (pH) ([2]; ES6, FaSSIF-v1, pH 6.5, 37° C.): (6.2); Solubility for 2 h ([2]; ES7, FeSSIF-v1, pH 5.0, 37° C.): 700 µg/mL; pH of supernatant, solubility for 2 h (pH) ([2]; ES7, FeSSIF-v1, pH 5.0, 37° C.): (5.0); Solubility for 24 h ([2]; ES7, FeSSIF-v1, pH 5.0, 37° C.): 800 µg/mL; pH of supernatant, solubility for 24 h (pH) ([2]; ES7, FeSSIF-v1, pH 5.0, 37° C.): (4.9)
2 | C=CC(=O)NCC(=O)N1CCN(Cc2cc3c(N4CCOCC4)nc(-c4cnc(NC(=O)OC)cc4C(F)(F)F)nn3c2)CC1.O=C(O)/C=C\C(=O)O [Form B* of Compound I maleate salt, Methyl (5-(6-((4-(acryloylglycyl)piperazin-1-yl)methyl)-4-morpholinopyrrolo[2,1-f][1,2,4]triazin-2-yl)-4-(trifluoromethyl)pyridin-2-yl) carbamate maleate salt] | nearly monotonic water sorption-desorption behavior depending on RH | still Form B* of Compound I maleate salt | 1400 µg/mL | (1.3) | 1500 µg/mL | (1.3) | >2000 µg/mL | (4.5) | 300 µg/mL | (4.5) | 6.6 µg/mL | (6.6) | 4.7 µg/mL | (6.6) | 1.5 µg/mL | (7.3) | 1.4 µg/mL | (7.3) | >2000 µg/mL | (2.0) | water uptake (DVS) ([1]; from 40% to 90% RH): 2.7%; Solubility for 24 h ([2]; ES5, SGF, pH 2.0, 37° C.): >2000 µg/mL; pH of supernatant, solubility for 24 h (pH) ([2]; ES5, SGF, pH 2.0, 37° C.): (2.0); Solubility for 2 h ([2]; ES6, FaSSIF-v1, pH 6.5, 37° C.): 22.9 µg/mL; pH of supernatant, solubility for 2 h (pH) ([2]; ES6, FaSSIF-v1, pH 6.5, 37° C.): (6.1); Solubility for 24 h ([2]; ES6, FaSSIF-v1, pH 6.5, 37° C.): 16.2 µg/mL; pH of supernatant, solubility for 24 h (pH) ([2]; ES6, FaSSIF-v1, pH 6.5, 37° C.): (6.1); Solubility for 2 h ([2]; ES7, FeSSIF-v1, pH 5.0, 37° C.): 1100 µg/mL; pH of supernatant, solubility for 2 h (pH) ([2]; ES7, FeSSIF-v1, pH 5.0, 37° C.): (5.0); Solubility for 24 h ([2]; ES7, FeSSIF-v1, pH 5.0, 37° C.): 1000 µg/mL; pH of supernatant, solubility for 24 h (pH) ([2]; ES7, FeSSIF-v1, pH 5.0, 37° C.): (5.0)
